# Results: US10124009B2, “Bromodomain inhibitors” (Tensha Therapeutics, Inc., priority 2014, dated 2018)
# pIC50, pKd: −log10 of the molar value.
# What was measured:
# [1] = Caco-2 permeability assay; conditions: human; for recovery at 2 h, 10 μM: Caco-2; for Papp A→B at 2 h, 10 μM: Caco-2, Mean Papp, Assay Conc. 10 μM
# [2] = tested on: rat insulinoma (RIN) cell lines; experiment: Cell Titer-Glo rat insulinoma cell assay, all four cell lines; format: cell-based; conditions: all cell lines (RIN-14B, RIN-m5F, RIN-m, RIN-5)
# Method: (§1) A Cell Titer-Glo assay was utilized to test the sensitivity of four rat insulinoma (RIN) cell lines, RIN-14B, RIN-m5F, RIN-m, and RIN-5, to Compound 1 and Compound 2.
# (§2) Cells were seeded at 5000 cells per well in a 96-well microculture plate in a total volume of 100 μl/well and incubated for 24 hours. 100 μl of 2× testing compounds (Compound 1 or Compound 2), serially diluted 1:4 were added to each well. The concentrations tested for Compound 1 and Compound 2 were 20 μM, 5 μM, 1.25 μM, 0.313 μM, 0.0781 μM, 0.0195 μM, 0.00488 μM, 0.00122 μM, 0.000305 μM, and 0.0000763 μM. After 168-192 total hours of culture 100 μl of media was removed from each well and 50 μl of Cell Titer-Glo (Promega #G7571) was added to each well. The plate was shaken for 2 minutes and allowed to equilibrate for 10 minutes. Luminescence was measured on a Tecan GENios microplate reader. Percent inhibition of cell proliferation was calculated relative to untreated control wells. All tests were performed in triplicate or quadruplicates at each concentration level. IC50 values were calculated using Prism 6.00 curve-fitting with a four parameter-logistic equation.
# [3] = IV and oral pharmacokinetics in male Sprague-Dawley rats; format: in vivo, rat; conditions: for exposures following IV administration: IV 1 mg/kg; for Extrapolated / AUC(0-inf) / AUC(0-t) / Cmax / Tmax / half-life: rat plasma; for bioavailability / AUC(0-inf) / AUC(0-t) / Cmax / Tmax / half-life: male, Sprague-Dawley; for bioavailability: rat, plasma, PO 5 mg/kg, read-out: oral bioavailability F
# Method: Male Sprague-Dawley (˜250-325 g) with indwelling jugular vein cannulae (JVC) were purchased and allowed to acclimate to the test facility for a minimum of 2 days. All animals were fasted overnight prior to dosing. Oral formulations were prepared by weighing the appropriate amount of the compound into formulation vial and adding the appropriate volume of DMSO (10%), Solutol HS-15 (10%), and saline (80%) (See Table 0 for compound amounts and concentrations of all formulations). Once the test compound was in the vial, DMSO was added and the vial was vortexed for 1-2 minutes and sonicated for 3 minutes. The appropriate volume of Solutol HS-15 was then added to formulation vial and the vial was vortexed for 1-2 minutes and sonicated for 2 minutes. Saline was added and the pH adjusted to about 6.8-7.4, and the vial was vortexed for 2 minutes.
# Oral dosing was performed using a ball-tipped gavage needle. […] No abnormalities were observed during the course of the study. Serial samples were collected by via tail snip, or facial vein. Blood samples were collected into NaF Na2EDTA tubes and stored on wet ice until processed to plasma by centrifugation (3500 rpm for 10 minutes at 5° C.) within 30 minutes of collection. Plasma samples were transferred into matrix tubes and stored at −80° C. until transferred to analytical chemistry for analysis. The cellular fraction was discarded. Dose formulation and plasma samples were analyzed for parent drug and metabolite by Agilux Laboratories via LC/MS/MS using an RGA I assay.
# [4] = tested on: RIN-m; experiment: Cell Titer-Glo rat insulinoma cell assay, RIN-m; format: cell-based; conditions: cell proliferation, 168-192 h culture
# Method: as §1, §2
# [5] = tested on: RIN-14B; experiment: Cell Titer-Glo rat insulinoma cell assay, RIN-14B; format: cell-based; conditions: cell proliferation, 168-192 h culture
# Method: as §1, §2
# [6] = tested on: RIN-5F; experiment: Cell Titer-Glo rat insulinoma cell assay, RIN-5F; format: cell-based; conditions: cell proliferation, 168-192 h culture
# Method: as §1, §2
# [7] = tested on: RIN-m5F; experiment: Cell Titer-Glo rat insulinoma cell assay, RIN-m5F; format: cell-based; conditions: cell proliferation, 168-192 h culture
# Method: as §1, §2
# [8] = target: BRD4(2) (Homo sapiens (Human), UniProt O60885); experiment: BROMOscan binding assay BRD4(2)
# Method: (§3) (S)-JQ (S8) was used as a positive control.
# (§4) T7 phage strains displaying bromodomains were grown in parallel in 24-well blocks in an E. coli host derived from the BL21 strain. E. coli were grown to log-phase and infected with T7 phage from a frozen stock (multiplicity of infection=0.4) and incubated with shaking at 32° C. until lysis (90-150 minutes). The lysates were centrifuged (5,000×g) and filtered (0.2 μm) to remove cell debris. […] The liganded beads were blocked with excess biotin and washed with blocking buffer (SeaBlock (Pierce), 1% BSA, 0.05% Tween 20, 1 mM DTT) to remove unbound ligand and to reduce non-specific phage binding.
# (§5) Test compounds were prepared as 1000× stocks in 100% DMSO and subsequently serially diluted 1:10 in monoethylene glycol (MEG) to create stocks at 100× the screening concentration (resulting stock solution is 10% DMSO/90% MEG). The compounds were then diluted directly into the assays such that the final concentration of DMSO and MEG were 0.1% and 0.9%, respectively. All reactions were performed in polystyrene 96-well plates in a final volume of 0.135 ml. […] The bromodomain concentration in the eluates was measured by qPCR.
# (§6) Most Kds were determined using a compound top concentration=10,000 nM.
# (§7) Binding constants (Kds) were calculated with a standard dose-response curve using the Hill equation. The Hill Slope was set to −1. Curves were fitted using a non-linear least square fit with the Levenberg-Marquardt algorithm. […] The amount of bromodomain was measured by qPCR (y-axis) and was plotted against the corresponding compound concentration in nM in log 10 scale.
# [9] = target: BRD4(1) (Homo sapiens (Human), UniProt O60885); experiment: BROMOscan binding assay BRD4(1)
# Method: as §3, §4, §5, §6, §7
# [10] = tested on: Caco-2; experiment: Caco-2 permeability assay; conditions: Assay Conc. 10 μM
# [11] = in vitro; conditions: human
# [12] = PO Dose (5 mg/kg) vs IV (1 mg/kg)
SMILES,"recovery at 2 h, 10 μM [1]","Papp A→B at 2 h, 10 μM [1]",exposures following IV administration [3],Extrapolated ([3]; IV Dose (1 mg/kg)),bioavailability [3],AUC(0-inf) ([3]; IV Dose (1 mg/kg)),AUC(0-t) ([3]; IV Dose (1 mg/kg)),Cmax ([3]; IV Dose (1 mg/kg)),Tmax ([3]; IV Dose (1 mg/kg)),half-life ([3]; IV Dose (1 mg/kg)),AUC(0-t) ([3]; PO Dose (5 mg/kg)),Cmax ([3]; PO Dose (5 mg/kg)),Tmax ([3]; PO Dose (5 mg/kg)),pKd [8],"Kd values / in vitro binding activity to BRD4(2), in words [8]",pKd [9],"Kd values / in vitro binding activity to BRD4(1), in words [9]",also measured
"Cc1sc2c(c1C)C(c1ccc(Cl)cc1)=N[C@@H](CC(=O)OC(C)(C)C)c1nnc(C)n1-2 [(S)-JQ1, reference compound]",84.6%,354 nm/s,–,–,–,–,–,–,–,–,–,–,–,–,–,–,–,–
Cc1sc2c(c1C)C(c1ccc(Cl)cc1)=N[C@@H](CC(=O)OC1CCC(O)CC1)c1nnc(C)n1-2 (stereo partly shown) [Compound 1],98.5%,307 nm/s,detected,0.41%,> 23%,1.5 µg·h/mL,1.5 µg·h/mL,1.49 µg/mL,4.98 min,47.9 min,2.36 µg·h/mL,0.619 µg/mL,60 min,8.82,low Kd values,8.89,low Kd values,"pIC50 [2]: > 7.40; F* ([3]; PO Dose (5 mg/kg) vs IV (1 mg/kg), AUC0-last was used to calculate % F): 31.6%; pIC50 [4]: 7.90; pIC50 [5]: 8.03; pIC50 ([6]; Rattus norvegicus): 7.67; pIC50 [6]: 7.71; pIC50 [7]: 7.95"
Cc1sc2c(c1C)C(c1ccc(Cl)cc1)=N[C@@H](CC(=O)OCC(C)O)c1nnc(C)n1-2 (stereo partly shown) [Compound 2],95.3%,306 nm/s,detected,4.62%,> 23%,–,–,0.79 µg/mL,4.98 min,27.4 min,2.72 µg·h/mL,0.82 µg/mL,60 min,8.72,low Kd values,8.72,low Kd values,"pIC50 [2]: > 7.10; F [3, 12]: 102.2%; AUC(0-inf) ([3]; PO Dose (5 mg/kg)): 3.03 µg·h/mL; half-life ([3]; PO Dose (5 mg/kg)): 107 min; pIC50 [4]: 7.38; pIC50 [5]: 7.58; pIC50 ([6]; Rattus norvegicus): 7.19; pIC50 [6]: 7.22; pIC50 [7]: 7.37"
Cc1sc2c(c1C)C(c1ccc(Cl)cc1)=N[C@@H](CC(=O)OCCO)c1nnc(C)n1-2 [Compound 3],88.7%,298 nm/s,–,–,–,–,–,–,–,–,–,–,–,8.92,low Kd values,8.96,low Kd values,–
Cc1sc2c(c1C)C(c1ccc(Cl)cc1)=N[C@@H](CC(=O)OCCCO)c1nnc(C)n1-2 [Compound 4],99.4%,356 nm/s,detected,0.28%,> 23%,0.784 µg·h/mL,0.782 µg·h/mL,1.13 µg/mL,4.98 min,48.4 min,0.813 µg·h/mL,0.48 µg/mL,30 min,8.89,low Kd values,8.96,low Kd values,"F [3, 12]: 23.4%; AUC(0-inf) ([3]; PO Dose (5 mg/kg)): 0.918 µg·h/mL; half-life ([3]; PO Dose (5 mg/kg)): 110 min"
Cc1sc2c(c1C)C(c1ccc(Cl)cc1)=N[C@@H](CC(=O)OCCCCCCO)c1nnc(C)n1-2 [Compound 5],88.7%,399 nm/s,detected,0.75%,–,0.516 µg·h/mL,0.512 µg·h/mL,1.07 µg/mL,4.98 min,18.1 min,0.0121 µg·h/mL,0.0122 µg/mL,30 min,9.40,low Kd values,–,low Kd values,–
Cc1sc2c(c1C)C(c1ccc(Cl)cc1)=N[C@@H](CC(=O)OCC(O)CO)c1nnc(C)n1-2 (stereo partly shown) [Compound 6],90.8%,47.4 nm/s,–,–,–,–,–,–,–,–,–,–,–,–,–,–,–,–
Cc1sc2c(c1C)C(c1ccc(Cl)cc1)=N[C@@H](CC(=O)OC/C(Br)=C(\Br)CO)c1nnc(C)n1-2 [Compound 7],76.9%,313 nm/s,–,–,–,–,–,–,–,–,–,–,–,8.68,low Kd values,8.82,low Kd values,–
"CNC(=C[N+](=O)[O-])NCCSCc1ccc(CN(C)C)o1 [Ranitidine, reference compound]",–,–,–,–,–,–,–,–,–,–,–,–,–,–,–,–,–,"Mean % recovery [10]: 97.8%; Mean Papp, A-B ([10]; 2 hours): 0.170 10^−6 cm/s"
CC(=O)CC(c1ccccc1)c1c(O)c2ccccc2oc1=O (stereo not shown) [Warfarin],–,–,–,–,–,–,–,–,–,–,–,–,–,–,–,–,–,"recovery at 2 h, 10 μM ([11]; Caco-2): 99.9%; Papp A→B at 2 h, 10 μM ([11]; Caco-2, Mean Papp, A-B): 388 nm/s"
